Here are results for one compound from patent EP1609872A1, “A method for selecting a gene involved in nisin resistance in bacteria” (Stichting voor de Technische Wetenschappen, priority 2004, dated 2005).

The subject of one assay is L. lactis IL1403 Nis^R. The assay is described as follows: MIC determination (nisin sensitivity assay). The class given is cell-based, Lactococcus lactis. The method, then:
Generation of nisin-resistant variants of L. lactis IL1403― A nisin stock solution was derived from nisaplin, (2.5% nisin, Aplin and Barrett, Danisco, Denmark) as described earlier (44). Nisin-resistant isogenic variants of L. lactis IL1403 were obtained by growing the strain in broth, while stepwise increasing the nisin concentration, as described before (29).
Nisin sensitivity assays― Sensitivity to nisin was determined essentially as described before (32) for the strains L. lactis NZ9000, L. lactis NZ9000 ΔgalAMK, L. lactis MG1363 and L. lactis MG1363 ΔdltD (16). For the strains of L. lactis NZ9000 (pNZ8048) and L. lactis NZ9000 (pJK1), the cells were diluted 50-fold in fresh medium. At an OD600 of 0.2 the cells of both cultures were induced with 4 µg/L nisin for 2 h. Nisin induction of PnisA in the pNZ8048 derivatives was performed as described by de Ruyter et al. (12). Outgrowth in all wells was determined at the moment when wells containing cells without nisin had reached an OD595 of 0.8, measured in an ELISA micro titer plate reader (Spectramax plus 384, Molecular Devices, Wageningen, the Netherlands). MIC values were calculated from the lowest concentration of nisin at which growth of the test strain was inhibited.

Another assay has as its system M. flavus Nis^R. Briefly: Determination of the Minimal Inhibitory Concentration (Example 2). The class given is cell-based, Micrococcus flavus. Conditions: cross-resistance of the Nis^R strains. The method, then: M. flavus and L. lactis were grown overnight at their optimum growth conditions. The Nis^R variants were grown in the presence of nisin (3 mg/L). The MIC values were estimated essentially as described before (23).

On to `C=C1NC(=O)[C@@H]2NC(=O)[C@H](CC(C)C)NC(=O)[C@H](NC(=O)[C@@H]3CS[C@@H](C)[C@@H](NC(=O)[C@H](Cc4ccccc4)NC(=O)[C@@H]4NC(=O)[C@@H](N)CS[C@H]4C)C(=O)N[C@@H](CC(C)C)C(=O)N4CCC[C@H]4C(=O)NCC(=O)NCC(=O)NCC(=O)NCC(=O)N[C@@H](C(C)C)C(=O)N3)[C@H](C)SC[C@H](NC(=O)[C@H](CCC(=O)O)NC1=O)C(=O)N[C@@H]([C@@H](C)CC)C(=O)N/C=C\S[C@H]2C` [Mersacidin, mersacidin], for which the cross-resistance entry with L. lactis IL1403 Nis^R is listed as “no cross-resistance”. Moreover, the “change in MIC in the nisin resistant strain” value with M. flavus Nis^R is on record as “No change”.
